Test results from patent US20110150873A1, “ANTI-INFLAMMATORY COMPOSITIONS AND COMBINATIONS” (CAMBRIDGE ENTERPRISE LIMITED, priority 2007, published 2011).
“Also recorded” adds a separate entry of the source.

Assays:
LPS-induced serum TNF-α = test: sub-lethal LPS-induced endotoxemia assay; type: in vivo, adult female CD-1 mice; settings: for % Inhibition of LPS-induced serum TNF-α, Mean: oral route, six mice
Text: In this assay, mice are given a non-specific pro-inflammatory challenge using bacterial endotoxin (LPS), and the extent of the systemic inflammatory response (measured by serum levels of the central pro-inflammatory cytokine TNF-α, which is essentially absent from the blood under normal conditions, but is rapidly elevated in response to a wide range of inflammatory stimuli). We have selected this model, even though it is not, itself, a particularly close model of any human inflammatory disease condition, because TNF-α is known to be important in very many diseases (including rheumatoid arthritis, autoimmune disorders, Crohn's Disease, atherosclerosis, asthma and many more). Consequently, agents which suppress TNF-α production are already used clinically (e.g. etanercept (Enbrel™) and other anti-TNF-α antibody products, such as infliximab (Remicade™) and adalimumab (Humira™)) to treat a wide range of such diseases.
Mice (adult female CD-1 mice in groups of 6) were pretreated with various doses of each compound, either by the subcutaneous route 30 mins prior to LPS challenge, or by the oral route (via gavage) 60 mins prior to LPS. The mice were then challenged with an intraperitoneal injection of 750 μg of bacterial LPS and sacrificed 2 hours later. Serum was prepared from a terminal bleed by cardiac puncture, and the concentration of TNF-α determined by ELISA (R&D Systems). In each experiment, a group of 6 mice receive no LPS to act as a negative control, and a second group receive only LPS (with no candidate inhibitor). The level of TNF-α in serum from these animals which received LPS without drug pre-treatment is arbitrarily set to 100% (and is typically of the order of 6,000 pg/ml, compared with levels of <10 pg/ml among the negative control group, which received no LPS).

[1] = tested on: serum growth hormone (GH); test: ovalbumin-sensitised rat model of asthma: serum growth hormone ELISA (side-effect measure); type: in vivo, Brown Norway rats
Procedure: (§1) Briefly, adult Brown Norway rats (200-300 g body weight; n=10 per group) are sensitised by a single interperitoneal injection of 0.1 mg Ovalbumin on day 0. Each rat then receives an intratracheal challenge with a solution of 1% ovalbumin (w/v) on day 8, and with 2% ovalbumin (w/v) on days 15, 18 and 21. The animals are then sacrificed 3 hours after the final challenge on day 21. Note that ovalbumin (Sigma; purest available grade) can be made endotoxin-free by passage over EndoTrap Red columns (purchased from Cambrex; used in accordance with the manufacturer's instructions), and the endotoxin level confirmed as <5 EU/mg protein using the LAL assay (QCL-1000; Cambrex; performed in accordance with the manufacturer's instructions; 1 mg of standard endotoxin contains ˜900,000 EU/mg). This ensures that the lung inflammation response results from the allergic response to the ovalbumin protein, rather than from unintended LPS stimulation which occurs even with the highest purity grade commercial ovalbumin preparations, and therefore ensures the model more closely represents the underlying molecular pathology of human asthma.
One group of mice (acting as a baseline control) receives no ovalbumin challenges, but are otherwise treated identically. A second group (positive control) receives the challenges but no drug treatment. Further groups are treated identically, but receive daily dosage with: (a) (S)-3-(2′,2′-dimethylpropanoylamino)-tetrahydropyridin-2-one (B′) at a dose of either 0.3 mg/kg or 0.03 mg/kg via oral gavage from day 8 until day 21, with dosage being given 1 hr prior to any subsequent challenge with ovalbumin made on the same day. […]
Serum is also prepared from a terminal bleed, and levels of GH are measured using a commercially available ELISA (Diagnostic Systems Laboratories, Inc; DSLabs) in accordance with the manufacturer's instructions.

[2] = tested on: Th1/Th2 polarisation axis; test: ovalbumin-sensitised rat model of asthma: splenocyte Th1/Th2 ratio by flow cytometry; type: in vivo, Brown Norway rats; settings: low dose B′ (0.03 mg/kg)
Procedure: as §1, with “asthma. […]” for “asthma.”
The spleen is also removed from each mouse and placed in RPMI+10% FCS+antibiotics. […] The resulting cell suspensions are then centrifuged (328 g; 5 mins) and washed in RPMI+10% FCS+antibiotics, before being resuspended in fresh media and counted using a haemocytometer. […]

[3] = tested on: leukocyte recruitment into the lung; test: ovalbumin-sensitised rat model of asthma: total BAL leukocyte count; type: in vivo, Brown Norway rats; settings: low dose alone: 0.03 mg/kg B′ or 0.01 mg/kg DMX, daily oral
Procedure: as §1, with “This ensures that the lung inflammation response results from the allergic response to the ovalbumin protein, rather than from unintended LPS stimulation which occurs even with the highest purity grade commercial ovalbumin preparations, and therefore ensures the model more closely represents the underlying molecular pathology of human asthma.” left out
On sacrifice, total lung leukocyate recruitment is assessed by performing a broncheoalveolar lavage (BAL) using 4 lots of 3 ml sterile phosphate-buffered saline introduced through a tracheal cannula. For each animal, the BAL washes are combined, and the total cell population counted (using a haemocytometer).

## C[C@@H]1C[C@H]2[C@@H]3CCC4=CC(=O)C=C[C@]4(C)[C@@]3(F)[C@@H](O)C[C@]2(C)[C@@]1(O)C(=O)CO [DMX, Dexamethasone, reference compound]
LPS-induced serum TNF-α; Experiment 1, DMX 3 × 10^−7 mg
  % Inhibition of LPS-induced serum TNF-α, Mean: 19%
LPS-induced serum TNF-α; Experiment 2, DMX 3 × 10^−7 mg
  % Inhibition of LPS-induced serum TNF-α, Mean: 37%
[1]; high dose DMX (1 mg/kg)
  suppression of serum GH levels: ≤ 80%
[1]; low dose DMX (0.01 mg/kg)
  suppression of serum GH levels: approximately 10%

## (S)-3-(adamantylamino)-caprolactam [B]
LPS-induced serum TNF-α; Experiment 1, B 3 × 10^−6 mg
  % Inhibition of LPS-induced serum TNF-α, Mean: 34%
LPS-induced serum TNF-α; Experiment 1
  % Inhibition of LPS-induced serum TNF-α, Mean: 15%
LPS-induced serum TNF-α; Experiment 2, B 3 × 10^−6 mg
  % Inhibition of LPS-induced serum TNF-α, Mean: 54%
LPS-induced serum TNF-α; Experiment 2
  % Inhibition of LPS-induced serum TNF-α, Mean: 34%
LPS-induced serum TNF-α; administered separately: 0.3 μg per mouse DMX or 0.1 μg/mouse B
  anti-inflammatory effect on the TNF-α response: minor anti-inflammatory effect which was not statistically significant in every experiment

## CC(C)(C)C(=O)N[C@H]1CCCNC1=O [B′, (S)-3-(2′,2′-dimethylpropanoylamino)-tetrahydropyridin-2-one]
[2]
  re-balancing of the Th1/Th2 axis: statistically significant Th1 shift
[3]
  effect on leukocyte accumulation in the lung: ineffective; also recorded: neither compound, when administered alone, has a statistically significant effect
[1]; B′ alone
  significant suppression of serum GH levels: not
